Data on 21 compounds can be found in patent US20160002248A1, “GLS1 INHIBITORS FOR TREATING DISEASE” (Board of Regents, The University of Texas System, priority 2014, published 2016).

Assay [1] has as its target T1, purified recombinant human GAC (GLS1) (Homo sapiens, UniProt O94925).
T1 sequence (O94925 55-598 isoform O94925-3 limits assumed): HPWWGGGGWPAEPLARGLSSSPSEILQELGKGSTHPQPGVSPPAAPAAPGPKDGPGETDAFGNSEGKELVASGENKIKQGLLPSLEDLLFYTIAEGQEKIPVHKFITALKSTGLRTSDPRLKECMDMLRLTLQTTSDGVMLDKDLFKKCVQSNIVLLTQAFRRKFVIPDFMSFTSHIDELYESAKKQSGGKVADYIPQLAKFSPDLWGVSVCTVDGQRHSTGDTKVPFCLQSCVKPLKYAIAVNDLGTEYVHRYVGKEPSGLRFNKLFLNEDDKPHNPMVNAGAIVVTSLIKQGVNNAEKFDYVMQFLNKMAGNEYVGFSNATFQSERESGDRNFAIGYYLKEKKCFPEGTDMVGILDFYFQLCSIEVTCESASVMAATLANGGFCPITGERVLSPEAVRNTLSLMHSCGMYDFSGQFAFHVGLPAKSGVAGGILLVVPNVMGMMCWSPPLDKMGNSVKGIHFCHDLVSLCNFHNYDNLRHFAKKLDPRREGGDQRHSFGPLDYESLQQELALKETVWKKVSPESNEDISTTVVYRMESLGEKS
Briefly: GLS1 Enzymatic Activity Assay (dual-coupled enzymatic assay). It is filed as biochemical. Put shortly:
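GAC activity measured by coupling glutamate to glutamate oxidase and HRP, generating resorufin from Amplex UltraRed. Enzyme (2 nM) preincubated with 50 mM potassium phosphate 10 min at room temperature, then inhibitor 10 min; 1 mM glutamine substrate, 1% DMSO. Fluorescence 530/590 nm, kinetic or 20-min endpoint; IC50 from four-parameter logistic fit.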

A further assay deals with A549 cells. Nature of the assay: Proliferation Assay (A549 cell viability, Cell Titer Fluor). It is filed as cell-based. Particulars: Homo sapiens, 72 hours. An outline of the steps: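 Compound exposure lasted 72 h (final DMSO 0.5% v/v) on A549 cells plated at 1000 cells/well one day earlier. Cell Titer Fluor added, 30 min at 37 °C, fluorescence read; EC50 derived by four-parameter logistic curve fitting.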

One may read the IC50 as the concentration needed to halve the response being measured. The term EC50 denotes the concentration needed to bring the measured effect to its halfway point. Low readings indicate an effect from little substance, high ones a need for much substance. As for `Cc1ccc(CNC(=O)c2cn(CCCCc3cc4c(C5=CCN(C(=O)OC(C)(C)C)CC5)c(C5CC5)[nH]c4nn3)nn2)cn1` [Example 198, tert-butyl 4-(6-cyclopropyl-3-[4-(4-{[(6-methylpyridin-3-yl)methyl]carbamoyl}-1H-1,2,3-triazol-1-yl)butyl]-7H-pyrrolo[2,3-c]pyridazin-5-yl}-1,2,3,6-tetrahydropyridine-1-carboxylate], the concentration for half-maximal inhibition (IC50) in assay [1] is less than 100 nM. The compound also gave an EC50 in the assay on A549 cells of 500 to 5000 nM.

Turning to `Cc1ccc(CNC(=O)c2cn(CCCCc3cc4c(-c5cccc(C(F)(F)F)c5)c(C5CC5)[nH]c4nn3)nn2)cn1` [Example 167, 1-(4-{6-cyclopropyl-5-[3-(trifluoromethyl)phenyl]-7H-pyrrolo[2,3-c]pyridazin-3-yl}butyl)-N-[(6-methylpyridin-3-yl)methyl]-1H-1,2,3-triazole-4-carboxamide], the IC50 in assay [1] was less than 100 nM. Also, the EC50 in the assay on A549 cells lay in the range of 100 to 500 nM.

`O=C(Cc1cccc(OC(F)(F)F)c1)Nc1nnc(CCCCc2cc3cc(Cc4ccccc4)[nH]c3nn2)s1` [Example 58, N-[5-(4-{6-benzyl-7H-pyrrolo[2,3-c]pyridazin-3-yl}butyl)-1,3,4-thiadiazol-2-yl]-2-[3-(trifluoromethoxy)phenyl]acetamide]: the IC50 in assay [1] was less than 100 nM. This compound also had an EC50 in the assay with A549 cells of 100 to 500 nM.

Regarding `CC(C)(O)c1ccc(CNC(=O)c2cn(CCCCc3cc4c(-c5cccc(OC(F)(F)F)c5)c(C5CC5)[nH]c4nn3)nn2)cn1` [Example 169, 1-(4-{6-cyclopropyl-5-[3-(trifluoromethoxy)phenyl]-7H-pyrrolo[2,3-c]pyridazin-3-yl}butyl)-N-{[6-(2-hydroxypropan-2-yl)pyridin-3-yl]methyl}-1H-1,2,3-triazole-4-carboxamide], the IC50 in assay [1] was less than 100 nM. Besides, in the assay with A549 cells, the EC50 was 100 to 500 nM.

As to `Cc1ccc(CNC(=O)c2cn(CCCCc3cc4cc(-c5cccc(C(F)(F)F)c5)[nH]c4nn3)nn2)cn1` [Example 203, N-[(6-methylpyridin-3-yl)methyl]-1-(4-{6-[3-(trifluoromethyl)phenyl]-7H-pyrrolo[2,3-c]pyridazin-3-yl}butyl)-1H-1,2,3-triazole-4-carboxamide], the half-maximal inhibitory concentration (IC50) in assay [1] is less than 100 nM. In the assay on A549 cells, this compound gave a half-maximal effective concentration (EC50) of 100 to 500 nM.

For the compound `Cc1ccc(CNC(=O)c2cn(CCCCc3cc4cc(-c5ccc(OC(F)(F)F)cc5)[nH]c4nn3)nn2)cn1` [Example 182, N-[(6-methylpyridin-3-yl)methyl]-1-(4-{6-[4-(trifluoromethoxy)phenyl]-7H-pyrrolo[2,3-c]pyridazin-3-yl}butyl)-1H-1,2,3-triazole-4-carboxamide], in assay [1], the IC50 is less than 100 nM. In the assay with A549 cells, the EC50 is 100 to 500 nM.

On to `CC(C)OC(=O)N1CC(c2cc3cc(CCCCn4cc(C(=O)NCc5cc(C(F)(F)F)ccn5)nn4)nnc3[nH]2)C1` [Example 200, propan-2-yl 3-(3-{4-[4-({[4-(trifluoromethyl)pyridin-2-yl]methyl}carbamoyl)-1H-1,2,3-triazol-1-yl]butyl}-7H-pyrrolo[2,3-c]pyridazin-6-yl)azetidine-1-carboxylate], for which the IC50 in assay [1] is less than 100 nM. In the assay with A549 cells, this compound came in with an EC50 of 100 to 500 nM.

For the compound `CC(C)Cc1cc2cc(CCCCn3cc(C(=O)NCc4ccccn4)nn3)nnc2[nH]1` [Example 28, 1-{4-[6-(2-methylpropyl)-7H-pyrrolo[2,3-c]pyridazin-3-yl]butyl}-N-(pyridin-2-ylmethyl)-1H-1,2,3-triazole-4-carboxamide], the IC50 in assay [1] lay within 500 to 5000 nM. Besides, the EC50 in the assay on A549 cells fell in the range of 100 to 500 nM.

Turning to `O=C(NCc1ccccn1)c1cn(CCCCc2cc3c(-c4ccccc4)c(C4CC4)[nH]c3nn2)nn1` [Example 108, 1-(4-{6-cyclopropyl-5-phenyl-7H-pyrrolo[2,3-c]pyridazin-3-yl}butyl)-N-(pyridin-2-ylmethyl)-1H-1,2,3-triazole-4-carboxamide], in assay [1], the IC50 was less than 100 nM. In addition, the EC50 in the assay with A549 cells fell in the range of 100 to 500 nM.

Regarding `COc1cccc(-c2cc3cc(CCCCn4cc(C(=O)NCc5ccc(C)nc5)nn4)nnc3[nH]2)c1` [Example 176, 1-{4-[6-(3-methoxyphenyl)-7H-pyrrolo[2,3-c]pyridazin-3-yl]butyl}-N-[(6-methylpyridin-3-yl)methyl]-1H-1,2,3-triazole-4-carboxamide], the IC50 in assay [1] is less than 100 nM. Moreover, the EC50 in the assay on A549 cells lay in the range of 100 to 500 nM.

Take `O=C(NCc1ccccn1)c1cn(CCCCc2cc3c(-c4ccncc4)c(C4CC4)[nH]c3nn2)nn1` [Example 113, 1-{4-[6-cyclopropyl-5-(pyridin-4-yl)-7H-pyrrolo[2,3-c]pyridazin-3-yl]butyl}-N-(pyridin-2-ylmethyl)-1H-1,2,3-triazole-4-carboxamide]: in assay [1], the IC50 is less than 100 nM. The EC50 in the assay with A549 cells is 500 to 5000 nM.

For `O=C(Nc1nnc(CCCCc2cc3cc(Cc4ccccc4)[nH]c3nn2)s1)[C@H](O)c1ccccc1` [Example 60, (2R)-N-[5-(4-(6-benzyl-7H-pyrrolo[2,3-c]pyridazin-3-yl}butyl)-1,3,4-thiadiazol-2-yl]-2-hydroxy-2-phenylacetamide], the half-inhibitory concentration (IC50) in assay [1] was less than 100 nM. The EC50 in the assay with A549 cells lay in the range of 500 to 5000 nM.

Consider `O=C(NCc1ccccn1)c1cn(CCCCc2cc3cc(-c4cccc(OC(F)(F)F)c4)[nH]c3nn2)nn1` [Example 149, N-(pyridin-2-ylmethyl)-1-(4-{6-[3-(trifluoromethoxy)phenyl]-7H-pyrrolo[2,3-c]pyridazin-3-yl}butyl)-1H-1,2,3-triazole-4-carboxamide], for which, in assay [1], the IC50 is less than 100 nM. The concentration for a half-maximal effect (EC50) in the assay on A549 cells fell in the range of 500 to 5000 nM.

As for `Cn1nccc1-c1c(C2CC2)[nH]c2nnc(CCCCn3cc(C(=O)NCc4ccccn4)nn3)cc12` [Example 135, 1-{4-[6-cyclopropyl-5-(1-methyl-1H-pyrazol-5-yl)-7H-pyrrolo[2,3-c]pyridazin-3-yl]butyl}-N-(pyridin-2-ylmethyl)-1H-1,2,3-triazole-4-carboxamide], in assay [1], the IC50 was less than 100 nM. In addition, the 50% effective concentration (EC50) with A549 cells was 500 to 5000 nM.

For `COc1cccc(CNC(=O)c2cn(CCCCc3cc4cc(C5CC5)[nH]c4nn3)nn2)n1` [Example 33, 1-(4-{6-cyclopropyl-7H-pyrrolo[2,3-c]pyridazin-3-yl}butyl)-N-[(6-methoxypyridin-2-yl)methyl]-1H-1,2,3-triazole-4-carboxamide], the IC50 in assay [1] was 100 to 500 nM. Besides, the EC50 in the assay with A549 cells lay in the range of 500 to 5000 nM.

Turning to `COc1ncc(-c2c(C3CC3)[nH]c3nnc(CCCCn4cc(C(=O)NCc5cccc(OC(F)(F)F)c5)nn4)cc23)c(OC)n1` [Example 173, 1-{4-[6-cyclopropyl-5-(2,4-dimethoxypyrimidin-5-yl)-7H-pyrrolo[2,3-c]pyridazin-3-yl]butyl}-N-{[3-(trifluoromethoxy)phenyl]methyl}-1H-1,2,3-triazole-4-carboxamide], the IC50 in assay [1] was less than 100 nM. In addition, the EC50 in the assay on A549 cells was 100 to 500 nM.

For the compound `O=C(NCc1ccc(CF)nc1)c1cn(CCCCc2cc3c(C4CC4)c(C4CC4)[nH]c3nn2)nn1` [Example 214, 1-(4-{5,6-dicyclopropyl-7H-pyrrolo[2,3-c]pyridazin-3-yl}butyl)-N-{[6-(fluoromethyl)pyridin-3-yl]methyl}-1H-1,2,3-triazole-4-carboxamide], in assay [1], the 50% inhibitory concentration (IC50) is less than 100 nM. The EC50 in the assay on A549 cells was in the range of 100 to 500 nM.

Turning to `Cc1ccncc1CNC(=O)c1cn(CCCCc2cc3cc(C4CC4)[nH]c3nn2)nn1` [Example 47, 1-(4-{6-cyclopropyl-7H-pyrrolo[2,3-c]pyridazin-3-yl}butyl)-N-[(4-methylpyridin-3-yl)methyl]-1H-1,2,3-triazole-4-carboxamide], the IC50 in assay [1] was 100 to 500 nM. This compound also returned an EC50 with A549 cells of 500 to 5000 nM.

`CC(C)(O)c1ccc(CNC(=O)c2cn(CCCCc3cc4c(C5CC5)c(-c5ccccc5F)[nH]c4nn3)nn2)cn1` [Example 174, 1-{4-[5-cyclopropyl-6-(2-fluorophenyl)-7H-pyrrolo[2,3-c]pyridazin-3-yl]butyl}-N-{[6-(2-hydroxypropan-2-yl)pyridin-3-yl]methyl}-1H-1,2,3-triazole-4-carboxamide]: the IC50 in assay [1] is less than 100 nM. Also, the EC50 in the assay on A549 cells fell in the range of 100 to 500 nM.

For the compound `CC(C)COC(=O)N1CC(c2cc3cc(CCCCn4cc(C(=O)NCc5cc(OC(F)(F)F)ccc5F)nn4)nnc3[nH]2)C1` [Example 185, 2-methylpropyl 3-(3-{4-[4-({[2-fluoro-5-(trifluoromethoxy)phenyl]methyl}carbamoyl)-1H-1,2,3-triazol-1-yl]butyl)-7H-pyrrolo[2,3-c]pyridazin-6-yl)azetidine-1-carboxylate], the IC50 in assay [1] was less than 100 nM. This compound also returned an EC50 in the assay with A549 cells of less than 100 nM.

`O=C(NCc1cccc(OC(F)(F)F)c1)c1cn(CCCCc2cc3c(-c4ccccn4)c(C4CC4)[nH]c3nn2)nn1` [Example 143, 1-{4-[6-cyclopropyl-5-(pyridin-2-yl)-7H-pyrrolo[2,3-c]pyridazin-3-yl]butyl}-N-{[3-(trifluoromethoxy)phenyl]methyl}-1H-1,2,3-triazole-4-carboxamide]: the IC50 in assay [1] was less than 100 nM. The compound also yielded an EC50 with A549 cells of less than 100 nM.
